We go through 41 compounds from patent US10654808B2, “Tyrosine kinase inhibitor and pharmaceutical composition comprising same” (GUANGDONG RAYNOVENT BIOTECH CO., LTD., priority 2015, dated 2020).

Where only a bound is given, the exact number is not on record here.

For orientation: IC50 means the concentration at which inhibition is half-maximal.

Type in all cases: biochemical
In experiment [1] the target is T1, VEGFR2 (Homo sapiens, UniProt P35968).
T1 construct: purchased Life technology
Nature of the experiment: Z'-LYTE in vitro enzyme activity assay, VEGFR2. The following applies: 100 μM ATP, 60 minutes, room temperature; read-out: IC50 detected by Z'-LYTE, VEGFR2. Summed up: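 Reaction with 3 nM VEGFR2, 2 μM Tyr1 peptide and 100 μM ATP in HEPES pH 7.5/MgCl2/EGTA/BRIJ-35, 1% DMSO, 60 min at room temperature; development reagent then 60 min at 23° C. Compounds tested at 11 threefold dilutions, 10 μM–0.17 nM final, in duplicate; IC50 from 4-parameter fit of inhibition.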

Experiment [2] concerns the target T2, FGFR1 (Homo sapiens, UniProt P11362).
T2 construct: purchased Life technology
The experiment in a line: Z'-LYTE in vitro enzyme activity assay, FGFR1. The conditions noted are these: 25 μM ATP, 60 minutes, room temperature; read-out: IC50 detected by Z'-LYTE, FGFR1. Summed up: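 Z′-LYTE FRET assay with 1 nM FGFR1, 2 μM Tyr4 peptide and 25 μM ATP in HEPES pH 7.5 with Mg/Mn, 60 min at room temperature, then development 60 min at 23 °C. Compounds tested at 11 concentrations from 10 μM to 0.17 nM in 1% DMSO. IC50 from 4-parameter fit of inhibition.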

The target in experiment [3] is T3, PDGFRB (Homo sapiens, UniProt P09619).
T3 construct: purchased Millipore
T3 sequence (P09619 33-1106): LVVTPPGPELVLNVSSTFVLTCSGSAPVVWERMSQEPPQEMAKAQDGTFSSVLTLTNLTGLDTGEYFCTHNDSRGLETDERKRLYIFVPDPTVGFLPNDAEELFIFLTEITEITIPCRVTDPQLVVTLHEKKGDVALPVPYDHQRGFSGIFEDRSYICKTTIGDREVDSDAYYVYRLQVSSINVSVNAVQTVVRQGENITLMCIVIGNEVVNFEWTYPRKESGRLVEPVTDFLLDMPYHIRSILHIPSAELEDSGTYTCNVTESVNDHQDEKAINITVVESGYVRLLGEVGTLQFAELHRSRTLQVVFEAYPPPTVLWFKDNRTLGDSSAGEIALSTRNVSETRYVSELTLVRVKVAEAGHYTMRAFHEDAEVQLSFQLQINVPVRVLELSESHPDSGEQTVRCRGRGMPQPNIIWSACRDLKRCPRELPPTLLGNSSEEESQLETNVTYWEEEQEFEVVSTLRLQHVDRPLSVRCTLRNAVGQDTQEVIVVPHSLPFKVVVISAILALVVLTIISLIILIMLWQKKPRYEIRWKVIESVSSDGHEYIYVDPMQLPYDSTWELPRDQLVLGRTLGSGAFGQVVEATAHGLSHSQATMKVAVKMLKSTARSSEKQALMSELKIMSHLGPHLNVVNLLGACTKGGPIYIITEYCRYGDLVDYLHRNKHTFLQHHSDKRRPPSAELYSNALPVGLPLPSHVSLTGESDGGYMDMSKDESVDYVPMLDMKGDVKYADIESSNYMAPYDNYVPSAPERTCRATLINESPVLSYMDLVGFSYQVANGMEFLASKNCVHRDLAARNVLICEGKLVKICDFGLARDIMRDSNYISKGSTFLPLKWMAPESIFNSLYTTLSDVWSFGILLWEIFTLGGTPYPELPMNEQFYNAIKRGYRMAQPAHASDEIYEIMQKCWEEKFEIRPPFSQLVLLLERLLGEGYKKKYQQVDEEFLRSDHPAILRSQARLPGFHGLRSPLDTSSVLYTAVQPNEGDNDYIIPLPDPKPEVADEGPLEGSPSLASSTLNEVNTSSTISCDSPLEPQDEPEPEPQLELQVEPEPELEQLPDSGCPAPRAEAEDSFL
Nature of the experiment: Z'-LYTE in vitro enzyme activity assay, PDGFRB. The conditions noted are these: 100 μM ATP, 60 minutes, room temperature; read-out: IC50 detected by Z'-LYTE, PDGFRB. The gist of the method:
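Z′-LYTE FRET kinase assay using 40 nM PDGFRB, 2 μM Tyr4 peptide and 100 μM ATP in HEPES pH 7.5 with Mg2+/Mn2+ and 1% DMSO. The reaction ran 60 min at room temperature, followed by development for 60 min at 23 °C. IC50 values came from 4-parameter fits over 11 concentrations (10 μM–0.17 nM).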

T2 sequence (P11362 22-822): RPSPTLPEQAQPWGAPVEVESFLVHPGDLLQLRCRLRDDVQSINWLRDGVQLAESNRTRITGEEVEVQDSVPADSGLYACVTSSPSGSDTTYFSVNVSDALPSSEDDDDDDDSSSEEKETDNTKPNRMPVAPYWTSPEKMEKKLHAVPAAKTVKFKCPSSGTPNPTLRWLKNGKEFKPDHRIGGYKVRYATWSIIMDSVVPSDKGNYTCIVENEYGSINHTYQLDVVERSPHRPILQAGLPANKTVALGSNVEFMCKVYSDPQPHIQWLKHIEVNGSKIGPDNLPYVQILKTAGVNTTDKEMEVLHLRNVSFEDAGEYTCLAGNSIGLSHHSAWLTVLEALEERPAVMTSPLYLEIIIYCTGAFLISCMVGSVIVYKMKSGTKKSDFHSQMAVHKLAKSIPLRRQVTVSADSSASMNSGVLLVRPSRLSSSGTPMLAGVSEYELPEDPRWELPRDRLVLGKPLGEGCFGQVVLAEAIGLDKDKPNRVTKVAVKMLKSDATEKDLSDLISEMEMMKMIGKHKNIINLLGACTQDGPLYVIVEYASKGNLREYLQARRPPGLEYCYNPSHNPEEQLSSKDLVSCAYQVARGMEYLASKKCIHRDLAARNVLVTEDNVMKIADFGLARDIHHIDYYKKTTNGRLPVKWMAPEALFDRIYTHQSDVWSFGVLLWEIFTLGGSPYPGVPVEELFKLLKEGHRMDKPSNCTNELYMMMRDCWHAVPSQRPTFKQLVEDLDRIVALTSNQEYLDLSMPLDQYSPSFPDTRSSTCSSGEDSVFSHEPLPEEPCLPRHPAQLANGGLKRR
T1 sequence (P35968 20-1356): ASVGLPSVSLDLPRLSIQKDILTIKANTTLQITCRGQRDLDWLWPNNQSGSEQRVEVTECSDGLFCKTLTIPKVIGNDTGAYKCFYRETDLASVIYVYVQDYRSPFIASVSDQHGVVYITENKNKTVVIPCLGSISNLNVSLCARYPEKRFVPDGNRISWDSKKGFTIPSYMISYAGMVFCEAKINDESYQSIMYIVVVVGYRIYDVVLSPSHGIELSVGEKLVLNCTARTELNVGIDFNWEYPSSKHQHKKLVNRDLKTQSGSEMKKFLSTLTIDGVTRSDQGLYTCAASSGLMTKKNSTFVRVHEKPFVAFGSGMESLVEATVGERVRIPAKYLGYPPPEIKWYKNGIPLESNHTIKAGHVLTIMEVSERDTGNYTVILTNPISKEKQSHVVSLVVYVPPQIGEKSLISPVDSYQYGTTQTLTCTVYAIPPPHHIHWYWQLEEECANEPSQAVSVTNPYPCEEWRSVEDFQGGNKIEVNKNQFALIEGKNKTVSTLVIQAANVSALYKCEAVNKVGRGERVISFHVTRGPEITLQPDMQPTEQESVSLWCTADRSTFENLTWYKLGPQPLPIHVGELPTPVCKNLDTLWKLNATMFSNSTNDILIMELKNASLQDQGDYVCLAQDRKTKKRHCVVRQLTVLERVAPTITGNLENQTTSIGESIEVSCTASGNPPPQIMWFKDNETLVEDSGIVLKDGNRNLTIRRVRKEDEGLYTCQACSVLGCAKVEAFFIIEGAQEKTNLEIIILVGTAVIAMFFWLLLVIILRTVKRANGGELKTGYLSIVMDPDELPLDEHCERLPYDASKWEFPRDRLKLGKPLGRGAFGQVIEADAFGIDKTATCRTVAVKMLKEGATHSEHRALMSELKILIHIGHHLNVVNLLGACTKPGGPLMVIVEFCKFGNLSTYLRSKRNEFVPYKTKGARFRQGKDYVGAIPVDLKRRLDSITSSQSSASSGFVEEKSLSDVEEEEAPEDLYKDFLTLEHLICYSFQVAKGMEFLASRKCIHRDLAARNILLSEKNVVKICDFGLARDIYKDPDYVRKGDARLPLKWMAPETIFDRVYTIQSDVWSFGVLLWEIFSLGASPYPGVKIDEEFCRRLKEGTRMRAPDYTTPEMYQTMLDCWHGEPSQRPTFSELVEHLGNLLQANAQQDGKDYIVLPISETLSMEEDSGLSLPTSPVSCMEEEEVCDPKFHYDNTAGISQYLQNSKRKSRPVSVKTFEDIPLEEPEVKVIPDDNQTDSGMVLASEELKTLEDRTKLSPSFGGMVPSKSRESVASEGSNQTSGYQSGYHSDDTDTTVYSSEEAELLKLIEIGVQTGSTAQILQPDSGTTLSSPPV

Consider `COc1cc2nccc(Oc3ccc(NC(=S)N4CC(F)(F)C4)cc3F)c2cc1C(N)=O` [Example 101], for which the results for the IC50 in experiment [1], in experiment [2] and in experiment [3] were 0.2 to 1 µM, 0.2 to 1 µM and 0.05 to 0.2 µM, respectively.

For the compound `COc1cc2nccc(Oc3ccc(NC(=O)NC(C)(C)C(F)(F)F)c(Cl)c3)c2cc1C(N)=O` [Example 33], the IC50 in experiment [1] lay within 0.2 to 1 µM; in experiment [2], 0.2 to 1 µM; in experiment [3] it was 0.05 to 0.2 µM.

In the case of `COc1cc2nccc(Oc3cc4occ(C(=O)N5CC(F)(F)C5)c4cc3Cl)c2cc1C(N)=O` [Example 198], the IC50 in experiment [1], in experiment [2] and in experiment [3] was 0.2 to 1 µM each time.

Take `COc1cc2nccc(Oc3ccc(NC(=S)NCc4ccncc4)c(Cl)c3)c2cc1C(N)=O` [Example 5]: the IC50 in experiment [1] fell in the range of 0.05 to 0.2 µM; in experiment [2], 0.2 to 1 µM; in experiment [3] it was 0.05 to 0.2 µM.

Take `COc1cc2nccc(Oc3ccc(NC(=O)N4CC(F)C4)c(Cl)c3F)c2cc1C(N)=O` [Example 122]: the IC50 in experiment [1] is 0.05 to 0.2 µM; in experiment [2], 0.2 to 1 µM; in experiment [3], below 0.05 µM.

With `COc1cc2nccc(Oc3ccc(NC(=S)NC4CC4)nc3)c2cc1C(N)=O` [Example 43], the IC50 in experiment [1] is 0.2 to 1 µM; in experiment [2] it was 0.2 to 1 µM; in experiment [3], below 0.05 µM.

Consider `COc1cc2nccc(Oc3ccc(NC(=S)NC4CC4)c(Cl)c3)c2cc1C(=O)NC1CC1` [Example 54], for which the results for the IC50 in experiment [1], in experiment [2] and in experiment [3] were 0.05 to 0.2 µM, 0.2 to 1 µM and 0.2 to 1 µM, respectively.

Take `COc1cc2nccc(Oc3ccc(NC(=S)NC4CCOCC4)c(Cl)c3)c2cc1C(N)=O` [Example 15]: the IC50 was 0.2 to 1 µM in experiment [1], 0.2 to 1 µM in experiment [2] and 0.05 to 0.2 µM in experiment [3].

As to `COc1cc2nccc(Oc3ccc(NC(=S)Nc4cc[nH]n4)c(Cl)c3)c2cc1C(N)=O` [Example 4], the values for the IC50 in experiment [1], in experiment [2] and in experiment [3] were 0.05 to 0.2 µM, 0.2 to 1 µM and 0.2 to 1 µM, respectively.

Consider `COc1cc2nccc(Oc3ccc(CC(=O)N4CCCC4)cc3)c2cc1C(N)=O` [Example 176], for which the IC50 in experiment [1], in experiment [2] and in experiment [3] was 0.2 to 1 µM throughout.

As to `COc1cc2nccc(Oc3ccc(NC(=S)N4CC[C@@H](O)C4)c(Cl)c3)c2cc1C(N)=O` [Example 73], the IC50 in experiment [1] lay in the range of 0.05 to 0.2 µM; in experiment [2] it was 0.2 to 1 µM; in experiment [3], 0.2 to 1 µM.

Take `COc1cc2nccc(Oc3ccc(NC(=S)Nc4cnc(C)s4)c(Cl)c3)c2cc1C(N)=O` [Example 71]: the IC50 lay in the range of 0.05 to 0.2 µM in experiment [1], 0.2 to 1 µM in experiment [2] and 0.05 to 0.2 µM in experiment [3].

`CC1(C)NC(=O)c2cc3c(Oc4ccc(NC(=S)NC5CC5)c(Cl)c4)ccnc3cc2O1` [Example 172]: the IC50 in experiment [1], in experiment [2] and in experiment [3] was 0.2 to 1 µM throughout.

On to `COc1cc2nccc(Oc3ccc(NC(=S)N4CC(F)(F)C4)c(Cl)c3)c2cc1C(F)(F)F` [Example 184], for which the IC50 in experiment [1], in experiment [2] and in experiment [3] was 0.2 to 1 µM throughout.

`COc1cc2nccc(Oc3ccc(NC(=S)NC4CC4)c(Cl)c3)c2cc1C(C)(C)O` [Example 175]: the IC50 in experiment [1], in experiment [2] and in experiment [3] was 0.2 to 1 µM each time.

Consider `COc1cc2nccc(Oc3ccc(N4CCNC4=O)c(Cl)c3)c2cc1C(N)=O` [Example 165], for which the IC50 in experiment [1], in experiment [2] and in experiment [3] was 0.2 to 1 µM each time.

Regarding `COc1cc2nccc(Oc3ccc(NC(=S)N[C@@H](C)CO)c(Cl)c3)c2cc1C(N)=O` [Example 22], the figures for the IC50 in experiment [1], in experiment [2] and in experiment [3] were 0.05 to 0.2 µM, 0.2 to 1 µM and 0.05 to 0.2 µM, respectively.

On to `COc1cc2nccc(Oc3ccc(NC(=S)NC4CC4)cc3C(F)(F)F)c2cc1C(N)=O` [Example 42], for which the IC50 in experiment [1], in experiment [2] and in experiment [3] was 0.2 to 1 µM throughout.

`COc1cc2nccc(Oc3ccc(NC(=S)NC4CC4)c(Cl)c3)c2cc1C(=O)NCC(F)(F)F` [Example 38]: the figures for the IC50 in experiment [1], in experiment [2] and in experiment [3] were 0.05 to 0.2 µM, 0.2 to 1 µM and 0.2 to 1 µM, respectively.

With `COc1cc2nccc(Oc3ccc(NC(=S)N4CC[C@H](O)C4)c(Cl)c3)c2cc1C(N)=O` [Example 74], the IC50 in experiment [1] lay within 0.05 to 0.2 µM; in experiment [2], 0.2 to 1 µM; in experiment [3], 0.2 to 1 µM.

For the compound `COc1cc2nccc(Oc3ccc(Nc4c(Nc5cccnc5)c(=O)c4=O)c(Cl)c3)c2cc1C(N)=O` [Example 147], the IC50 in experiment [1], in experiment [2] and in experiment [3] was 0.2 to 1 µM throughout.

With `COc1cc2nccc(Oc3ccc(N4CC(=O)NC4=S)c(Cl)c3)c2cc1C(N)=O` [Example 167], the values for the IC50 in experiment [1], in experiment [2] and in experiment [3] were below 0.05 µM, 0.2 to 1 µM and below 0.05 µM, respectively.

For the compound `COc1cc2nccc(Oc3ccc(NC(=O)N4CC[C@H](O)C4)c(Cl)c3F)c2cc1C(N)=O` [Example 118], the IC50 was in the range of 0.05 to 0.2 µM in experiment [1], 0.2 to 1 µM in experiment [2] and 0.05 to 0.2 µM in experiment [3].

In the case of `COc1cc2nccc(Oc3ccc(Nc4c(NCC(F)(F)F)c(=O)c4=O)c(Cl)c3)c2cc1C(N)=O` [Example 138], the IC50 in experiment [1], in experiment [2] and in experiment [3] was 0.2 to 1 µM each time.

Take `COc1cc(Oc2ccnc3cc(OC)c(C(N)=O)cc23)ccc1NC(=S)NC1CC1` [Example 72]: the IC50 in experiment [1] lay within 0.05 to 0.2 µM; in experiment [2] it was 0.2 to 1 µM; in experiment [3], 0.05 to 0.2 µM.

For the compound `COc1cc2nccc(Oc3cc(Cl)c(NC(=S)NC4CC4)cc3F)c2cc1C(N)=O` [Example 77], the results for the IC50 in experiment [1], in experiment [2] and in experiment [3] were below 0.05 µM, 0.2 to 1 µM and 0.05 to 0.2 µM, respectively.

`COc1cc2nccc(Oc3ccc(Nc4c(NCCc5ccccc5)c(=O)c4=O)c(Cl)c3)c2cc1C(N)=O` [Example 154]: the IC50 in experiment [1], in experiment [2] and in experiment [3] was 0.2 to 1 µM in each case.

Take `COc1cc2nccc(Oc3ccc(NC(=S)NC4CC4)c(Cl)c3)c2cc1C(=O)N1CC(F)(F)C1` [Example 53]: the results for the IC50 in experiment [1], in experiment [2] and in experiment [3] were 0.2 to 1 µM, 0.2 to 1 µM and 0.05 to 0.2 µM, respectively.

For `COc1cc2nccc(Oc3ccc4c(c3)CCCN4C(=S)NC3CC3)c2cc1C(N)=O` [Example 26], the IC50 was in the range of 0.05 to 0.2 µM in experiment [1], 0.2 to 1 µM in experiment [2] and 0.2 to 1 µM in experiment [3].

Regarding `COc1cc2nccc(Oc3ccc(Nc4c(NCc5ccccn5)c(=O)c4=O)c(Cl)c3)c2cc1C(N)=O` [Example 150], the results for the IC50 in experiment [1], in experiment [2] and in experiment [3] were 0.2 to 1 µM, 0.2 to 1 µM and below 0.05 µM, respectively.

In the case of `COc1cc2nccc(Oc3ccc(NC(=O)N4CC(F)(F)C4)c(Cl)c3F)c2cc1C(N)=O` [Example 119], the values for the IC50 in experiment [1], in experiment [2] and in experiment [3] were 0.05 to 0.2 µM, 0.2 to 1 µM and below 0.05 µM, respectively.

With `COc1cc2nccc(Oc3ccc(NC(=S)N4CC[C@H](O)C4)c(Cl)c3F)c2cc1C(N)=O` [Example 106], the IC50 is below 0.05 µM in experiment [1], 0.05 to 0.2 µM in experiment [2] and 0.2 to 1 µM in experiment [3].

For the compound `COc1cc2nccc(Oc3ccc4c(C(=O)N5CC[C@H](O)C5)coc4c3)c2cc1C(N)=O` [Example 203], the concentration for half-maximal inhibition (IC50) was in the range of 0.2 to 1 µM in experiment [1], 0.2 to 1 µM in experiment [2] and 0.05 to 0.2 µM in experiment [3].

With `COc1cc2nccc(Oc3cc(F)c(NC(=S)N4CCCC4)c(F)c3)c2cc1C(N)=O` [Example 91], the figures for the concentration for half-maximal inhibition (IC50) in experiment [1], in experiment [2] and in experiment [3] were 0.05 to 0.2 µM, 0.2 to 1 µM and 0.2 to 1 µM, respectively.

As for `COc1cc2nccc(Oc3ccc(NC(=S)NC4CC4)c(C(F)(F)F)c3)c2cc1C(N)=O` [Example 41], the IC50 in experiment [1] was below 0.05 µM; in experiment [2] it was 0.2 to 1 µM; in experiment [3], 0.2 to 1 µM.

With `COc1cc2nccc(Oc3ccc(NC(=S)NC4CC4)c(Cl)c3)c2cc1C(=O)N1CCCCC1` [Example 49], the IC50 was in the range of 0.2 to 1 µM in experiment [1], 0.2 to 1 µM in experiment [2] and 0.05 to 0.2 µM in experiment [3].

In the case of `COc1cc2nccc(Oc3ccc(NC(=S)N4CC[C@@H](F)C4)c(Cl)c3F)c2cc1C(N)=O` [Example 108], the IC50 lay in the range of 0.05 to 0.2 µM in experiment [1], 0.05 to 0.2 µM in experiment [2] and 0.2 to 1 µM in experiment [3].

Regarding `COc1cc2nccc(Oc3ccc(N4C(=O)CN(C)C4=S)c(Cl)c3)c2cc1C(N)=O` [Example 81], the IC50 lay within 0.2 to 1 µM in experiment [1], 0.2 to 1 µM in experiment [2] and 0.05 to 0.2 µM in experiment [3].

Regarding `COc1cc2nccc(Oc3ccc(NC(=S)NCc4ccc(Cl)cc4)c(Cl)c3)c2cc1C(N)=O` [Example 9], the IC50 in experiment [1] is 0.2 to 1 µM; in experiment [2], 0.2 to 1 µM; in experiment [3], below 0.05 µM.

As for `COc1ccc2c(Oc3ccc(NC(=S)NC4CC4)c(Cl)c3)ccnc2c1` [Example 170], the figures for the IC50 in experiment [1], in experiment [2] and in experiment [3] were below 0.05 µM, 0.2 to 1 µM and 0.2 to 1 µM, respectively.

For the compound `COc1cc2nccc(Oc3ccc(NC(=S)NC4(C#N)CC4)c(Cl)c3)c2cc1C(N)=O` [Example 75], the IC50 in experiment [1], in experiment [2] and in experiment [3] was 0.2 to 1 µM throughout.
